The results in this text go back to patent US20240400577A1, “MODULATORS OF PROTEIN KINASES” (VIBLIOME THERAPEUTICS, LLC, priority 2021, published 2024).

Holding throughout (test): Kinase panel enzymatic inhibition assay (Nanosyn)
Holding throughout (assay type): biochemical

Assay [1] deals with T1, PAK4 (Homo sapiens, UniProt O96013).
T1 construct: Nanosyn (contract laboratory that ran the panel)
Particulars: ATP at Km; 30-minute pre-incubation; read-out: kinase inhibition in terms of IC50, PAK4. The procedure: (§1) The disclosed compounds were tested for activity against a panel of at least 300 kinases. Kinase panel screening was conducted by Nanosyn (Santa Clara, CA 95051) using an enzymatic inhibition assay accepted as valid by those skilled in the art (e.g., the Caliper LabChip® mobility shift assay, an ADP detection assay, or time-resolved fluorescence detection technology. Compounds were screened at a concentration of 5 μM using an ATP concentration at the Km for each of the respective kinases and a 30-minute pre-incubation time-point.
(§2) In Table 1 and 2, kinase inhibition is classified by: A=95% or greater, B=90%-94%, C=80%-89%, and D=79% and less with a compound concentration of 5 JIM. In Table 3 and 4, kinase inhibition is reported in terms of IC50 values corresponding to A=less than 500 nm, B=500 nm to less than 1 μM, C=1 μM to less than 10 μM, and D=10 μM or greater using a compound concentration of 5 μM.

Assay [2] concerns the target T2, PAK2 (Homo sapiens, UniProt Q13177).
T2 construct: Nanosyn (contract laboratory that ran the panel)
Conditions: ATP at Km; 30-minute pre-incubation; read-out: kinase inhibition in terms of IC50, PAK2. As to the method: as §1, §2

For assay [3], the target named is T3, PAK1 (Homo sapiens, UniProt Q13153).
T3 construct: Nanosyn (contract laboratory that ran the panel)
T3 sequence (Q13153 whole entry): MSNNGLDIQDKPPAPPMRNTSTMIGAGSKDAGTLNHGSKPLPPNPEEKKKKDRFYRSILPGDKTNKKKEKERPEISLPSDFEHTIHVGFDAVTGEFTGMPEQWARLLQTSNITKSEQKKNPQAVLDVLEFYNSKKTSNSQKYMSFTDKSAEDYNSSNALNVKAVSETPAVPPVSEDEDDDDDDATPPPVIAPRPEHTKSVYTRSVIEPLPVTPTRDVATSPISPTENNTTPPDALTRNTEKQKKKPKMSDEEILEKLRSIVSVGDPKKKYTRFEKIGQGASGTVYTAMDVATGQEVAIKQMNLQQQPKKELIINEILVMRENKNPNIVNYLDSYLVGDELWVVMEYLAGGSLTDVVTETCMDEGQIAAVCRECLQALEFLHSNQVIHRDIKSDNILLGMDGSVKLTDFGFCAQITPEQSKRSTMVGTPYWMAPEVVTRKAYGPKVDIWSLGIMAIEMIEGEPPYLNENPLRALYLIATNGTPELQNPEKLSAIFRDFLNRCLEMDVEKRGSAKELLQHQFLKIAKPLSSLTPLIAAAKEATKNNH
Conditions: ATP at Km; 30-minute pre-incubation; read-out: kinase inhibition in terms of IC50, PAK1. The procedure: as §1, §2

Assay [4] addresses T4, WEE1 (Homo sapiens, UniProt P30291).
T4 construct: purchased Nanosyn
Particulars: ATP at Km; 30-minute pre-incubation; read-out: kinase inhibition in terms of IC50, WEE1. As to the method: as §1, §2

Assay [5] addresses T5, ITK (Homo sapiens, UniProt Q08881).
T5 construct: Nanosyn (contract laboratory that ran the panel)
T5 sequence (Q08881 1-620): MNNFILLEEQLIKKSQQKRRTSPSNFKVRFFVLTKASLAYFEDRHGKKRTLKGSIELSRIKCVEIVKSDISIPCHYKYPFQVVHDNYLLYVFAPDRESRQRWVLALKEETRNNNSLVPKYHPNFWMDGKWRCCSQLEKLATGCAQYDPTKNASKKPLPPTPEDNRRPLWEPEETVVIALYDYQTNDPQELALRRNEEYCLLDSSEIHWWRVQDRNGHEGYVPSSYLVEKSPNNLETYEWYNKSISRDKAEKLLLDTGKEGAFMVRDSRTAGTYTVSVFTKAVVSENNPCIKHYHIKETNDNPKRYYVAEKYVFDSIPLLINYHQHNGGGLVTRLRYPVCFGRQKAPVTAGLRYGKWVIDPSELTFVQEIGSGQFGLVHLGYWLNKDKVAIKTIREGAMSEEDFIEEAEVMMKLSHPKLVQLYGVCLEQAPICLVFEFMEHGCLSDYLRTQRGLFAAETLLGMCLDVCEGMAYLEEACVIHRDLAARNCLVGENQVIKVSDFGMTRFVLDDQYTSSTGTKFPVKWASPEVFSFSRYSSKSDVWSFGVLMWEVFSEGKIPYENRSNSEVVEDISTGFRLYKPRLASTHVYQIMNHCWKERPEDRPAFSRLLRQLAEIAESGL
Particulars: ATP at Km; 30-minute pre-incubation; read-out: kinase inhibition in terms of IC50, ITK. The procedure:
as §1, §2

Assay [6] addresses T6, RIPK1 (Homo sapiens, UniProt Q13546).
T6 construct: purchased Nanosyn
T6 sequence (Q13546 1-671): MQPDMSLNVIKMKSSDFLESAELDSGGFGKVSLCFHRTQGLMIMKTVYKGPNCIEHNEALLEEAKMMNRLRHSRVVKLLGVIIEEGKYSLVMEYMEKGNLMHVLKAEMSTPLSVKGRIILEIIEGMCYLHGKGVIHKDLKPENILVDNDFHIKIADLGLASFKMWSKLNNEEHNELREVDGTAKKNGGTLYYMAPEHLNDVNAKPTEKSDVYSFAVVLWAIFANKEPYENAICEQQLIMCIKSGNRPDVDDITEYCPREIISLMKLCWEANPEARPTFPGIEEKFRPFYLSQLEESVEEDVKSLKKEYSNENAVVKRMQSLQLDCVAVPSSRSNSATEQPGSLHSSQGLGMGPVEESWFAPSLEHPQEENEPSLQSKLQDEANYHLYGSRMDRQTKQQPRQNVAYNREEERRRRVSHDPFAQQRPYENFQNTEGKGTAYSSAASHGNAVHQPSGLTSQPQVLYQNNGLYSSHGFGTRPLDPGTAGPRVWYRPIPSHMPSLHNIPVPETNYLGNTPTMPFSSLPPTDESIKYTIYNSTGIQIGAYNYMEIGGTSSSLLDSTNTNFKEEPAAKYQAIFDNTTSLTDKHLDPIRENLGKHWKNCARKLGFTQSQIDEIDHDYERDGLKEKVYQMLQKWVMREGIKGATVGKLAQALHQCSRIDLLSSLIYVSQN
Particulars: ATP at Km; 30-minute pre-incubation; read-out: kinase inhibition in terms of IC50, RIPK1. As to the method: as §1, §2

The target of assay [7] is T7, RIPK2 (Homo sapiens, UniProt O43353).
T7 construct: purchased Nanosyn
T7 sequence (O43353 whole entry): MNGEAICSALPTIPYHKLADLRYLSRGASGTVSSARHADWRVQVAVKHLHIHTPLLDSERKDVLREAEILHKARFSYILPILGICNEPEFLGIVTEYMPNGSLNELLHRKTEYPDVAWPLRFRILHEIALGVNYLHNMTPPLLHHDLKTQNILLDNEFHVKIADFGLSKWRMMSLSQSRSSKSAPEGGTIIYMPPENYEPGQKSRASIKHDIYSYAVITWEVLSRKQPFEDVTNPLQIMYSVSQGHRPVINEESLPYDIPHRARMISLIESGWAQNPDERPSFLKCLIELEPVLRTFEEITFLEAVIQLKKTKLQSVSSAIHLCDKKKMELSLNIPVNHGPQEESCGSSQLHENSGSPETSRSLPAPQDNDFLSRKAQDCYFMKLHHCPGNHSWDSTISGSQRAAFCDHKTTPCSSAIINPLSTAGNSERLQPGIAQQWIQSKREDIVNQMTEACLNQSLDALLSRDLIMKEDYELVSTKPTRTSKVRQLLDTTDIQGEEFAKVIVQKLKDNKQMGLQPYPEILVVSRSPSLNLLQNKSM
Particulars: ATP at Km; 30-minute pre-incubation; read-out: kinase inhibition in terms of IC50, RIPK2. The procedure:
as §1, §2

Assay [8] deals with T8, TYK2 (Homo sapiens, UniProt P29597).
T8 construct: purchased Nanosyn
T8 sequence (P29597 whole entry): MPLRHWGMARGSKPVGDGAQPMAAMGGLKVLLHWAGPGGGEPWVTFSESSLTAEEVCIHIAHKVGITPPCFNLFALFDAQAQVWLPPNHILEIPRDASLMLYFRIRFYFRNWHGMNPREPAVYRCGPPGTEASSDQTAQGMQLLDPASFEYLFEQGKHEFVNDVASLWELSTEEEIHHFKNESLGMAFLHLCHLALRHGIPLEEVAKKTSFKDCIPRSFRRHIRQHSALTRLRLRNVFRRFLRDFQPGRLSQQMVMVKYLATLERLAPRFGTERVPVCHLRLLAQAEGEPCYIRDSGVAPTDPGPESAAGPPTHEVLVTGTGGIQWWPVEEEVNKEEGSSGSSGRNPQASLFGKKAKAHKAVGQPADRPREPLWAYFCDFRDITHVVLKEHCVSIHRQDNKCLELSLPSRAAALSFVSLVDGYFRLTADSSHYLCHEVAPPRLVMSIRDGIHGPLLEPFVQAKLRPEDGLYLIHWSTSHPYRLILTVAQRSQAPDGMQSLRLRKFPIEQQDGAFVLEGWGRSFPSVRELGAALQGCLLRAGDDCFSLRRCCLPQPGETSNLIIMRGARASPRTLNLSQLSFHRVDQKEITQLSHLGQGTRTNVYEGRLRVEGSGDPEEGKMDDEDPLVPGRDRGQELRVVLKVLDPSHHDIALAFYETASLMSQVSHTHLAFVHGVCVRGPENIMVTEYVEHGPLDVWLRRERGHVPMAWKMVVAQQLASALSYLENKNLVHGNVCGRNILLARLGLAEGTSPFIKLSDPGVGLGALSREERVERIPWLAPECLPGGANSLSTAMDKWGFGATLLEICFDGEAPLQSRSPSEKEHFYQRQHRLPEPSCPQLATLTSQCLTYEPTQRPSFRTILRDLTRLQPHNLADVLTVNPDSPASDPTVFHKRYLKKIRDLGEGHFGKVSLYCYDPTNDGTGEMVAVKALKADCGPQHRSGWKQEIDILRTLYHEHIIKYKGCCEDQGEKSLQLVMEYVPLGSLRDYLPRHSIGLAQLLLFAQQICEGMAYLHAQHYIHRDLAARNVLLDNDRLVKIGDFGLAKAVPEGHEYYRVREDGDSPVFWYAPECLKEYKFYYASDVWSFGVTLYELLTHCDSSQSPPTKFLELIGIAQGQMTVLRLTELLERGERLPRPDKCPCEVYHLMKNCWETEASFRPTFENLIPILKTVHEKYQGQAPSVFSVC
Particulars: ATP at Km; 30-minute pre-incubation; read-out: kinase inhibition in terms of IC50, TYK2. As to the method: as §1, §2

The target in assay [9] is T9, JAK3 (Homo sapiens, UniProt P52333).
T9 construct: Nanosyn (contract laboratory that ran the panel)
T9 sequence (P52333 1-1124): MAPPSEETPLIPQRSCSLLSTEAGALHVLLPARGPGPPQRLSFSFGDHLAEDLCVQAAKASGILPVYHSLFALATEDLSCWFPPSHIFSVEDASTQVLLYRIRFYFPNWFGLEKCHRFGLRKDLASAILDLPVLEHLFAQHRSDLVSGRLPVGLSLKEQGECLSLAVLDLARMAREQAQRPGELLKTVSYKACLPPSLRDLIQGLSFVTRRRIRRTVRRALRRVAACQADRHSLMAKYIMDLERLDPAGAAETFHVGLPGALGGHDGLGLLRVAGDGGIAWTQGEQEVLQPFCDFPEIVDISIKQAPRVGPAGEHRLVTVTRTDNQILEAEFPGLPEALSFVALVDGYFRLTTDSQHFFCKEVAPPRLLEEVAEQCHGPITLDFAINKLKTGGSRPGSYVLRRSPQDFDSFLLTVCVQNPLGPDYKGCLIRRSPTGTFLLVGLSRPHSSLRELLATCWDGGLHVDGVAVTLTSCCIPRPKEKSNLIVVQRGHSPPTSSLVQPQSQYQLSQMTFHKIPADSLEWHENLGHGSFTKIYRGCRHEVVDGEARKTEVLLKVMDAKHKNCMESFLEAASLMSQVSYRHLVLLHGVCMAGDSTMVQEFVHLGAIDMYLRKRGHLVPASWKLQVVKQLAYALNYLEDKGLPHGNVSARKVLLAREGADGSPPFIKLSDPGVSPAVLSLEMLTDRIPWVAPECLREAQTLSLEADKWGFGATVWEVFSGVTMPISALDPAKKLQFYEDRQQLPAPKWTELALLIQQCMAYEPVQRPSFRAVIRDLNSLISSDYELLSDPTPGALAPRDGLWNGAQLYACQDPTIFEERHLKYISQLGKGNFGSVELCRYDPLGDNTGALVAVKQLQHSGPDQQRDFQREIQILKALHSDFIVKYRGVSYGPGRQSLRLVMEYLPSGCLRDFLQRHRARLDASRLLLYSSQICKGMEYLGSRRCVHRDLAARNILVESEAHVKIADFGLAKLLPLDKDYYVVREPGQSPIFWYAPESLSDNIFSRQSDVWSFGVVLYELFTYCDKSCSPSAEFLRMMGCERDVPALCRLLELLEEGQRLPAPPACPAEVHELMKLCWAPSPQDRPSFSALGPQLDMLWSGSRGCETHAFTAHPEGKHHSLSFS
Conditions: ATP at Km; 30-minute pre-incubation; read-out: kinase inhibition in terms of IC50, JAK3. As to the method:
as §1, §2

T2 sequence (Q13177 whole entry): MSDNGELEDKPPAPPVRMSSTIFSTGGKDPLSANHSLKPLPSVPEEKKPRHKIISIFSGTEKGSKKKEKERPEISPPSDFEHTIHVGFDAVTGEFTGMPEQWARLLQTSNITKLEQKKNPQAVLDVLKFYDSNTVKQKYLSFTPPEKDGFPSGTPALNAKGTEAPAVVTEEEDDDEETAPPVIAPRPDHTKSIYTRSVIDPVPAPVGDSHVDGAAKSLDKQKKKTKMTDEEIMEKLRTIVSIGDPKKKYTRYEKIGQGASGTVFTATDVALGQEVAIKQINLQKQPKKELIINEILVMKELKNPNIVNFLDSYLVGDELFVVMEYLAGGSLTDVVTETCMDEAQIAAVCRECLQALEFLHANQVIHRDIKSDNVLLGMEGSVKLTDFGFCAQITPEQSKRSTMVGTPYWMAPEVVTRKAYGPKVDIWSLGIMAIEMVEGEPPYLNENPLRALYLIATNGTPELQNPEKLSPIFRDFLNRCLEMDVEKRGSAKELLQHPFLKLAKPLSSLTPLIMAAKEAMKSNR
T4 sequence (P30291 whole entry): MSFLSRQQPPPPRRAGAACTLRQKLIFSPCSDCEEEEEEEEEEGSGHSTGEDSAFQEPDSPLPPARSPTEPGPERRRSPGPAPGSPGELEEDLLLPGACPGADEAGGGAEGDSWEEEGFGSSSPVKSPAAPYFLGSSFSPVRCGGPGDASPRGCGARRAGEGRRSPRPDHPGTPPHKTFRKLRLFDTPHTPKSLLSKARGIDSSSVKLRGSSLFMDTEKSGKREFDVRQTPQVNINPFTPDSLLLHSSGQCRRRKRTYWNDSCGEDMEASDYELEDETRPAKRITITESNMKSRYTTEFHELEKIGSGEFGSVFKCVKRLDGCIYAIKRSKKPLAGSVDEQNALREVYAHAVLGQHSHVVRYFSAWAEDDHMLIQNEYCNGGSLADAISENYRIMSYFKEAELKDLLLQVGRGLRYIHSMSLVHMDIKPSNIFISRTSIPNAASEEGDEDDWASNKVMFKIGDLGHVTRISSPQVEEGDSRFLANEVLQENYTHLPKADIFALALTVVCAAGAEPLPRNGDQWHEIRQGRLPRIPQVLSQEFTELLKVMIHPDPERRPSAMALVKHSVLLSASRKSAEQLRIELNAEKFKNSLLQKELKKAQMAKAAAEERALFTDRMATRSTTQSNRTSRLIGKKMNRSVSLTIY
T1 sequence (O96013 whole entry): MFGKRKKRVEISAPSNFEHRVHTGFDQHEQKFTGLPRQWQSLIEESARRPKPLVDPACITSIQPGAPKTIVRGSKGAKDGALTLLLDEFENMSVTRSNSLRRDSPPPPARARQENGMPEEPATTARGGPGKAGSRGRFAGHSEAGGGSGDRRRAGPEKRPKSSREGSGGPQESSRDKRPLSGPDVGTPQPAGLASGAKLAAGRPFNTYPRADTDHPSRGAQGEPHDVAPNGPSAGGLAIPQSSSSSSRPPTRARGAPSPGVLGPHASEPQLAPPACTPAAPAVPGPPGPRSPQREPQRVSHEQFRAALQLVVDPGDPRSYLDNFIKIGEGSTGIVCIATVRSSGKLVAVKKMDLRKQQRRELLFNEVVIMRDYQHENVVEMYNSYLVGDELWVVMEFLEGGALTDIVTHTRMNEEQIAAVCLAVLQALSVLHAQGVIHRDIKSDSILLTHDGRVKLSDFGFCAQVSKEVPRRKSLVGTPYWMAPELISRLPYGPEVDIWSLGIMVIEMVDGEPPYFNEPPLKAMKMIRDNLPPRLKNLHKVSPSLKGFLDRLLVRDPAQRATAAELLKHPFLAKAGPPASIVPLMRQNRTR

For `CNc1ncc2cc(-c3cc(NC(=O)c4cc(S(C)(=O)=O)n(-c5ccc(F)cc5)n4)ccc3Cl)c(=O)n(C)c2n1` [Ex76, N-(4-chloro-3-(8-methyl-2-(methylamino)-7-oxo-7,8-dihydropyrido[2,3-d]pyrimidin-6-yl)phenyl)-1-(4-fluorophenyl)-5-(methylsulfonyl)-1H-pyrazole-3-carboxamide], the IC50 in assay [1] was 1 to 10 µM; in assay [2], no less than 10 µM; in [3], no less than 10 µM; in assay [4], no less than 10 µM.

On to `CNc1ncc2cc(-c3cc(NC(=O)c4ccn(-c5ccc(F)cc5)n4)c(F)cc3C)c(C)nc2n1` [Ex85, N-(2-fluoro-4-methyl-5-(7-methyl-2-(methylamino)pyrido[2,3-d]pyrimidin-6-yl)phenyl)-1-(4-fluorophenyl)-1H-pyrazole-3-carboxamide], for which the half-maximal inhibitory concentration (IC50) in [2] and in [3] was no less than 10 µM each time.

On to `Cc1ccc(NC(=O)c2ccn(-c3ccc(F)cc3)n2)cc1Nc1nccc(-c2cccnc2)n1` [Ex75, 1-(4-fluorophenyl)-N-(4-methyl-3-((4-(pyridin-3-yl)pyrimidin-2-yl)amino)phenyl)-1H-pyrazole-3-carboxamide], for which, in assay [5], the IC50 was no less than 10 µM.

As for `Cc1ccc(NC(=O)c2ccn(-c3ccc(F)cc3)n2)cc1C#Cc1cnc2cccnn12` [Ex79, 1-(4-fluorophenyl)-N-(3-(imidazo[1,2-b]pyridazin-3-ylethynyl)-4-methylphenyl)-1H-pyrazole-3-carboxamide], the 50% inhibitory concentration (IC50) in [6] and in assay [7] was less than 0.5 µM in each case.

As to `Cc1cnc2[nH]cc(Cc3ccc(NC(=O)c4cc(S(C)(=O)=O)n(-c5ccc(F)cc5)n4)nc3F)c2c1` [Ex87, N-(6-fluoro-5-((5-methyl-1H-pyrrolo[2,3-b]pyridin-3-yl)methyl)pyridin-2-yl)-1-(4-fluorophenyl)-5-(methylsulfonyl)-1H-pyrazole-3-carboxamide], the IC50 in assay [8] and in assay [9] was no less than 10 µM throughout.
